Results on two molecules are retold here after patent US5066489A (Cetus Corporation, priority 1990, dated 1991).

For series [1] the following is noted: cited from earlier work.
Series [2] can be described thus: Phase I-II study of IL-2 plus DTIC in melanoma patients: toxicity. Type of series: in vivo, human. The note with it: DTIC 1.0 gm/m^2 24 h infusion. The procedure: Patients, between 18 to 70 years of age, were admitted for three, separate Phase I-II studies. Each patient had to meet the following criteria for entering the study:
1. Dose and Schedule--Twenty patients received three cycles of Interleukin-2 in combination with DTIC. Each cycle was 28 days in duration. All drugs were administered by hospital staff either while in-patient or in the out-patient clinic. Patients received 1.0 gm/m^2 of DTIC as an IV continuous infusion over 24 hours every 4 weeks.
(§1) For the First Cycle--Patients were admitted to the hospital on a Sunday evening for a Hickman catheter placement on the succeeding Monday. On Day 1 (Tuesday), DTIC was administered by continuous 24 hour infusion at a dose of 1.0 gm/m^2 intravenously. Pharmacokinetic studies were performed on Days 1 and 2.
The dose schedule was identical to that given for cycle two.

The nature of series [3]: DTIC pharmacokinetics in patients (first two cycles, 12 patients). Type of series: in vivo, human. The note with it: effect of IL-2; first two cycles in 12 patients. The procedure: as §1
DTIC pharmokinetics were performed on the first two cycles in 12 patients.

The next series relates to metastatic melanoma. The note with it: cited from earlier work.

As to `CN(C)N=Nc1[nH]cnc1C(N)=O` [DTIC, dimethyl-triazeno-imidazole-carboxmide], the “hematologic and GI toxicities” value in series [1] (DTIC dose regimen) is given as “vary with the DTIC dose regimen used”. The acute toxicity result in series [1] (five-day continuous infusions) is reported as “least acute toxicity”. Also, the “dosage adjustments for nausea/vomiting or for myelosuppression” value in series [2] is “required no dosage adjustments”. Moreover, the “mild nausea and vomiting” value in series [2] (of the courses) is listed as 96%. The peak plasma levels entry in series [3] was “not altered by IL-2”. Besides, the antitumor schedule dependency entry with metastatic melanoma (DTIC dose regimens) is listed as “has not been observed”. In the series on metastatic melanoma (Roth and Kirkwood (1987)), the “single agent response rate” value was 24%. Further, the “most promising response rate (%) observed alone” value with metastatic melanoma (complete plus partial responses, treatment of melanoma, Roth (DTIC), Rosenberg et al 1987 (IL-2)) is reported as “approximately 24%”. Further, in the series with metastatic melanoma (five-day continuous infusions), the dose responses result is listed as “equivalent dose responses”. The “responsiveness of visceral metastases (gastrointestinal tract, liver, brain)” value in the series with metastatic melanoma (versus soft tissue disease) is “relatively less responsive than soft tissue disease”.
As for `NC(=O)c1[nH]cnc1N` [AIC, 5-aminoimidazole 4-carboxamide], the peak plasma levels entry in series [3] is reported as “not altered by IL-2”.
